Experimental data as given in patent publication US12083124B2 (Incyte Corporation, priority 2019, dated 2024).

Experiments:
[1] = target: wild-type un-phosphorylated FGFR3 (Homo sapiens, UniProt P22607); experiment: FGFR Enzymatic Assay (FRET peptide phosphorylation), FGFR3
[2] = target: wild-type un-phosphorylated FGFR1 (Homo sapiens, UniProt P11362); experiment: FGFR Enzymatic Assay (FRET peptide phosphorylation), FGFR1; details: FGFR1, wild-type un-phosphorylated FGFR1; pre-incubated for 4 hours
[3] = target: wild-type un-phosphorylated FGFR4 (Homo sapiens, UniProt P22455); experiment: FGFR Enzymatic Assay (FRET peptide phosphorylation), FGFR4
[4] = target: wild-type un-phosphorylated FGFR2 (Homo sapiens, UniProt P21802); experiment: FGFR Enzymatic Assay (FRET peptide phosphorylation), FGFR2
Chain of wild-type un-phosphorylated FGFR2 (P21802 22-821): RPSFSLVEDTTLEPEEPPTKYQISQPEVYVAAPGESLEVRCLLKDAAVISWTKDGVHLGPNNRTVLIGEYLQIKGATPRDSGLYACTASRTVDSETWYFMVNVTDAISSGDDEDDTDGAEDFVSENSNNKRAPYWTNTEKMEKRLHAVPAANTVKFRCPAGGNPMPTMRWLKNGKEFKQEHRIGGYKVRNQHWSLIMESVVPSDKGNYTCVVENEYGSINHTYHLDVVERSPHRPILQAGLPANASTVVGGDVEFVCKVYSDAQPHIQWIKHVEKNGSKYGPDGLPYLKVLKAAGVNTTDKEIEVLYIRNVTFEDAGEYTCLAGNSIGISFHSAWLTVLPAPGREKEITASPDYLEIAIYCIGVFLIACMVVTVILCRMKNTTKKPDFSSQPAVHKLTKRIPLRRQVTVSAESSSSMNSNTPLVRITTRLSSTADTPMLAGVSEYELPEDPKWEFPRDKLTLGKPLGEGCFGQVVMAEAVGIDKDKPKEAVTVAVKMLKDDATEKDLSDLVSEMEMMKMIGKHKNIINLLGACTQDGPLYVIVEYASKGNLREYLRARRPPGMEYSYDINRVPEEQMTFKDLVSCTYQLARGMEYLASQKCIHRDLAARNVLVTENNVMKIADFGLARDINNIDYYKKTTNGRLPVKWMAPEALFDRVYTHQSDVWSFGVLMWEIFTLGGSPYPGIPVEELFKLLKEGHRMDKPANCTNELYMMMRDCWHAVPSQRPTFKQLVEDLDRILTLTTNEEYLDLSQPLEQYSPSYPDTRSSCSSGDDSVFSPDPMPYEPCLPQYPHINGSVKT

Chain of wild-type un-phosphorylated FGFR4 (P22455 22-802): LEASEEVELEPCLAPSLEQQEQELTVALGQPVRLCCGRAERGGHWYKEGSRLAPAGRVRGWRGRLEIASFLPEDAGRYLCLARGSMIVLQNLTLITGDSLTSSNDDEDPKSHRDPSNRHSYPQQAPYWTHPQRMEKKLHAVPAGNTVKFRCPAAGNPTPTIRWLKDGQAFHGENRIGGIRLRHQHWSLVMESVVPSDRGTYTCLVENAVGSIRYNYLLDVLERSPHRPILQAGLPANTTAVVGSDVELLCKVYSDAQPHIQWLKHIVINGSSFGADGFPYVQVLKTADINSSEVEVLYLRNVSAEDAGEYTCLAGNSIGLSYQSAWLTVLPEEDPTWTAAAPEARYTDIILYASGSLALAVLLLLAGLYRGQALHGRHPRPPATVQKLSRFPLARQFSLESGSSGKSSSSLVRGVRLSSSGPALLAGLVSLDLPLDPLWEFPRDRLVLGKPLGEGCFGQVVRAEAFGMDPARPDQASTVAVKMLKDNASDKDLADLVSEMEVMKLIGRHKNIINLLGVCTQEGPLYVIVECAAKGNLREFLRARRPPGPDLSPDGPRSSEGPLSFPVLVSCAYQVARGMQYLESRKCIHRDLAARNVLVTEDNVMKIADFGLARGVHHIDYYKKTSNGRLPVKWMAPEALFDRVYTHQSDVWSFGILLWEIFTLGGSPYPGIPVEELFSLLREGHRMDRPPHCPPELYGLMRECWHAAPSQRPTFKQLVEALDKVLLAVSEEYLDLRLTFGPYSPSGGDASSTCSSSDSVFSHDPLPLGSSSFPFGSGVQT
Chain of wild-type un-phosphorylated FGFR1 (P11362 22-822): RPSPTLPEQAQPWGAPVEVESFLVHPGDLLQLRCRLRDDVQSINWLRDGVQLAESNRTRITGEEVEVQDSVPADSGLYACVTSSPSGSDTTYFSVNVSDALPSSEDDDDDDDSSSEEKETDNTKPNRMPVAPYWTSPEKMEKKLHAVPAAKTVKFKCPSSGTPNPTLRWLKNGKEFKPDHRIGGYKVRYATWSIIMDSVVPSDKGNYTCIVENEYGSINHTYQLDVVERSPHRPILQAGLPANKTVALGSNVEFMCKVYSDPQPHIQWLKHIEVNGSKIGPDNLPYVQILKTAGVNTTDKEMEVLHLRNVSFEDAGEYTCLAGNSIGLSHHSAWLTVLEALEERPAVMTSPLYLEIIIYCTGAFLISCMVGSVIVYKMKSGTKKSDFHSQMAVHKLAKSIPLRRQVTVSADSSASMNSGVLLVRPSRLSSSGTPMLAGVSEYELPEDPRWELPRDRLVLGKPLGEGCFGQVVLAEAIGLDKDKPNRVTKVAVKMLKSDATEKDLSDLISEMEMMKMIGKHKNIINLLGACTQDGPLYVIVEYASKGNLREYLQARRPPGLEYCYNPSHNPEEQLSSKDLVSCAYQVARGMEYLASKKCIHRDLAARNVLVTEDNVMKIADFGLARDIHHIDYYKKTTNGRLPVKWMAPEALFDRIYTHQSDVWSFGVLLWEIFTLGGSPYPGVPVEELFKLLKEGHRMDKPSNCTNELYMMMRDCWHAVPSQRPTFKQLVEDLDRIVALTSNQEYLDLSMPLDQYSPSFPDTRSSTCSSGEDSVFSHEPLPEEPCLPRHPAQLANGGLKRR
Chain of wild-type un-phosphorylated FGFR3 (P22607 23-806): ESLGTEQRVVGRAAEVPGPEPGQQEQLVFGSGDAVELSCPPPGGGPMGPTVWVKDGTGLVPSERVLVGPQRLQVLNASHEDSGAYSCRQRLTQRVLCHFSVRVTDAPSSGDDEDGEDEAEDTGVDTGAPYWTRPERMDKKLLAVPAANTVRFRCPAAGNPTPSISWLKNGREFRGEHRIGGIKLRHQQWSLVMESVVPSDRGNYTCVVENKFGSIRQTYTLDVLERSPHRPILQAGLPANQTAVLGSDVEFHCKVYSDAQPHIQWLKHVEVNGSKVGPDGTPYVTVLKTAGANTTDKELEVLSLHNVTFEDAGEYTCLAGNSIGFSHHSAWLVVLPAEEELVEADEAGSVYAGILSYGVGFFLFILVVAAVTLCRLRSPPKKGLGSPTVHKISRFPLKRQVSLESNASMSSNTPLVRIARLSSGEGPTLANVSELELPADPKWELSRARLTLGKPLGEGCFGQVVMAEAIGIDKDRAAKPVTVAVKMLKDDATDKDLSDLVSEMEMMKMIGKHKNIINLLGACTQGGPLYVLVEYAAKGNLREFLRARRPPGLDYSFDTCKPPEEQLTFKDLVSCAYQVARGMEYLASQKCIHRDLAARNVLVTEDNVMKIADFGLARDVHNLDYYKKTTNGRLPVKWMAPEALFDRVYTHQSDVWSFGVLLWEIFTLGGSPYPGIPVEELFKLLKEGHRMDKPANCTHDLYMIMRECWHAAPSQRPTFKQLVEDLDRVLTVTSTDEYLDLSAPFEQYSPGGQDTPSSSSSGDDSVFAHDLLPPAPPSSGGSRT

SMILES	IC50 [1] [nM]	IC50 [2] [nM]	IC50 [3] [nM]	IC50 [4] [nM]
COc1cc2[nH]nc(-c3cnn(C4CCN(C(C)=O)CC4)c3)c2nc1-c1cccc2c1CCC2C#N (centres unmarked) [Example 112, 4-(3-(1-(1-Acetylpiperidin-4-yl)-1H-pyrazol-4-yl)-6-methoxy-1H-pyrazolo[4,3-b]pyridin-5-yl)-2,3-dihydro-1H-indene-1-carbonitrile]	< 6	40 to 100	40 to 100	< 6
COc1cc2[nH]nc(-c3cnn(C4CC(C#N)C4)c3)c2nc1-c1cccc2c1CCC2C#N (centres unmarked) [Example 111, 4-(3-(1-(3-Cyanocyclobutyl)-1H-pyrazol-4-yl)-6-methoxy-1H-pyrazolo[4,3-b]pyridin-5-yl)-2,3-dihydro-1H-indene-1-carbonitrile]	< 6	< 6	40 to 100	< 6
